Results as given in ChEMBL document CHEMBL3044631, “Synthesis of 2-[4,5-dimethyl-1-(phenylamino)-1H-imidazol-2-ylthio]-N-(thiazole-2-yl)acetamide derivatives and their anticancer activities” (2013).

How the values were obtained:
Format in all cases: functional
SR = test: Anticancer activity against Homo sapiens (human) SR cells assessed as cell growth promotion at 10 uM after 48 hr by SRB assay
NCI/ADR-RES = test: Anticancer activity against Homo sapiens (human) NCI/ADR-RES cells assessed as cell growth promotion at 10 uM after 48 hr by SRB assay
Hs-578T = test: Anticancer activity against Homo sapiens (human) Hs 578T cells assessed as cell growth promotion at 10 uM after 48 hr by SRB assay
NCI-H460 = test: Anticancer activity against Homo sapiens (human) NCI-H460 cells assessed as cell growth promotion at 10 uM after 48 hr by SRB assay
HCT-116 [1] = test: Anticancer activity against Homo sapiens (human) HCT116 cells after 48 hr by SRB assay; conditions: HCT-116, 48 h
NCI-H522 = test: Anticancer activity against Homo sapiens (human) NCI-H522 cells after 48 hr by SRB assay; conditions: NCI-H522, 48 h
T47D = test: Anticancer activity against Homo sapiens (human) T47D cells after 48 hr by SRB assay
HT-29 = test: Anticancer activity against Homo sapiens (human) HT-29 cells assessed as cell growth promotion at 10 uM after 48 hr by SRB assay
MDA-MB-468 [2] = test: Anticancer activity against Homo sapiens (human) MDA-MB-468 cells assessed as cell growth promotion at 10 uM after 48 hr by SRB assay
SK-MEL-28 = test: Anticancer activity against Homo sapiens (human) SK-MEL-28 cells assessed as cell growth promotion at 10 uM after 48 hr by SRB assay
A549 [3] = test: Anticancer activity against Homo sapiens (human) A549/ATCC cells assessed as cell growth promotion at 10 uM after 48 hr by SRB assay
U-251 = test: Anticancer activity against Homo sapiens (human) U251 cells assessed as cell growth promotion at 10 uM after 48 hr by SRB assay
ACHN = test: Anticancer activity against Homo sapiens (human) ACHN cells after 48 hr by SRB assay
SK-OV-3 = test: Anticancer activity against Homo sapiens (human) SKOV3 cells assessed as cell growth promotion at 10 uM after 48 hr by SRB assay
SW-620 = test: Anticancer activity against Homo sapiens (human) SW620 cells assessed as cell growth promotion at 10 uM after 48 hr by SRB assay
OVCAR-5 = test: Anticancer activity against Homo sapiens (human) OVCAR5 cells after 48 hr by SRB assay; conditions: OVCAR-5, 48 h
MDA-MB-435 = test: Anticancer activity against Homo sapiens (human) MDA-MB-435 cells after 48 hr by SRB assay; conditions: MDA-MB-435, 48 h
A549 [4] = test: Anticancer activity against Homo sapiens (human) A549/ATCC cells after 48 hr by SRB assay; conditions: A549, 48 h
UACC-62 = test: Anticancer activity against Homo sapiens (human) UACC62 cells after 48 hr by SRB assay; conditions: UACC-62, 48 h
CAKI-1 = test: Anticancer activity against Homo sapiens (human) CAKI-1 cells assessed as cell growth promotion at 10 uM after 48 hr by SRB assay
K562 = test: Anticancer activity against Homo sapiens (human) K562 cells assessed as cell growth promotion at 10 uM after 48 hr by SRB assay
SNB-75 [5] = test: Anticancer activity against Homo sapiens (human) SNB75 cells after 48 hr by SRB assay; conditions: SNB-75, 48 h
SNB-75 [6] = test: Anticancer activity against Homo sapiens (human) SNB75 cells assessed as cell growth promotion at 10 uM after 48 hr by SRB assay
IGROV-1 = test: Anticancer activity against Homo sapiens (human) IGROV1 cells assessed as cell growth promotion at 10 uM after 48 hr by SRB assay
HOP-62 = test: Anticancer activity against Homo sapiens (human) HOP62 cells after 48 hr by SRB assay; conditions: HOP-62, 48 h
COLO 205 = test: Anticancer activity against Homo sapiens (human) COLO205 cells after 48 hr by SRB assay; conditions: COLO 205, 48 h
LOX IMVI = test: Anticancer activity against Homo sapiens (human) LOXIMVI cells after 48 hr by SRB assay
MDA-MB-468 [7] = test: Anticancer activity against Homo sapiens (human) MDA-MB-468 cells after 48 hr by SRB assay; conditions: MDA-MB-468, 48 h
BT-549 = test: Anticancer activity against Homo sapiens (human) BT549 cells assessed as cell growth promotion at 10 uM after 48 hr by SRB assay
SNB-19 = test: Anticancer activity against Homo sapiens (human) SNB19 cells assessed as cell growth promotion at 10 uM after 48 hr by SRB assay
MOLT-4 [8] = test: Anticancer activity against Homo sapiens (human) MOLT4 cells after 48 hr by SRB assay; conditions: MOLT-4, 48 h
HCT-15 = test: Anticancer activity against Homo sapiens (human) HCT15 cells after 48 hr by SRB assay; conditions: HCT-15, 48 h
MOLT-4 [9] = test: Anticancer activity against Homo sapiens (human) MOLT4 cells assessed as cell growth promotion at 10 uM after 48 hr by SRB assay
HL-60(TB) = test: Anticancer activity against Homo sapiens (human) HL-60(TB) cells after 48 hr by SRB assay; conditions: HL-60, 48 h
HCT-116 [10] = test: Anticancer activity against Homo sapiens (human) HCT116 cells assessed as cell growth promotion at 10 uM after 48 hr by SRB assay
CCRF-CEM = test: Anticancer activity against Homo sapiens (human) CCRF-CEM cells assessed as cell growth promotion at 10 uM after 48 hr by SRB assay
[11] = read-out: LC50 (the source's name)

SMILES: COc1ccc(Nn2c(SCC(=O)Nc3nc(-c4ccc(Cl)cc4)cs3)nc(C)c2C)cc1
- Activity (SR): 40.3%
- Activity (NCI/ADR-RES): 23.11%
- Activity (Hs-578T): 86.14%
- Activity (NCI-H460): 39.32%
- GI50 (HCT-116 [1]): 2.12 µM
- LC50 (HCT-116 [1]): > 100 µM
- TGI (HCT-116 [1]): 14.1 µM
- GI50 (NCI-H522): 5.05 µM
- LC50 (50% lethal concentration) (NCI-H522): > 100 µM
- TGI (NCI-H522): > 100 µM
- GI50 (T47D): 1.23 µM
- TGI (T47D): 8.04 µM
- CC50 (T47D; [11]): > 100 µM
- Activity (HT-29): 30.12%
- Activity (MDA-MB-468 [2]): 26.17%
- Activity (SK-MEL-28): 82.63%
- Activity (A549 [3]): 44%
- Activity (U-251): 43.51%
- GI50 (ACHN): 2.27 µM
- LC50 (concentration killing 50% of cells) (ACHN): > 100 µM
- TGI (ACHN): 8.76 µM
- Activity (SK-OV-3): 81.45%
- Activity (SW-620): 75.2%
- GI50 (OVCAR-5): > 100 µM
- LC50 (OVCAR-5): > 100 µM
- TGI (OVCAR-5): > 100 µM
- GI50 (MDA-MB-435): 3.22 µM
- LC50 (concentration killing 50% of cells) (MDA-MB-435): > 100 µM
- TGI (MDA-MB-435): > 100 µM
- GI50 (A549 [4]): 3.32 µM
- LC50 (A549 [4]): > 100 µM
- TGI (A549 [4]): > 100 µM
- GI50 (UACC-62): 3.62 µM
- LC50 (UACC-62): > 100 µM
- TGI (UACC-62): > 100 µM
- Activity (CAKI-1): 34.44%
- Activity (K562): 26.88%
- GI50 (SNB-75 [5]): 4.8 µM
- LC50 (SNB-75 [5]): > 100 µM
- TGI (SNB-75 [5]): > 100 µM
- Activity (SNB-75 [6]): 56.63%
- Activity (IGROV-1): 70.85%
- LC50 (HOP-62): > 100 µM
- GI50 (COLO 205): 1.94 µM
- TGI (COLO 205): 3.55 µM
- CC50 (COLO 205; [11]): 6.51 µM
- GI50 (LOX IMVI): 3.02 µM
- LC50 (50% lethal concentration) (LOX IMVI): > 100 µM
- TGI (LOX IMVI): 44.2 µM
- GI50 (MDA-MB-468 [7]): 0.57 µM
- LC50 (MDA-MB-468 [7]): > 100 µM
- TGI (MDA-MB-468 [7]): 7.73 µM
- Activity (BT-549): 53.32%
- Activity (SNB-19): 79.24%
- GI50 (MOLT-4 [8]): 2.54 µM
- LC50 (50% lethal concentration) (MOLT-4 [8]): > 100 µM
- TGI (MOLT-4 [8]): > 100 µM
- GI50 (HCT-15): 4.79 µM
- TGI (HCT-15): > 100 µM
- CC50 (HCT-15; [11]): > 100 µM
- Activity (MOLT-4 [9]): 36.1%
- GI50 (HL-60(TB)): > 100 µM
- TGI (HL-60(TB)): 59.1 µM
- CC50 (HL-60(TB); [11]): > 100 µM
- Activity (HCT-116 [10]): 27.81%

SMILES: Cc1nc(SCC(=O)Nc2nccs2)n(Nc2ccc(Cl)cc2)c1C
- Activity (SR): 120.95%
- Activity (NCI/ADR-RES): 100.18%
- Activity (Hs-578T): 121.05%
- Activity (NCI-H460): 106%
- Activity (HT-29): 108.32%
- Activity (MDA-MB-468 [2]): 105.66%
- Activity (SK-MEL-28): 111.02%
- Activity (A549 [3]): 101.96%
- Activity (U-251): 108.53%
- Activity (SK-OV-3): 102.45%
- Activity (SW-620): 123.41%
- Activity (CCRF-CEM): 99.59%
- Activity (CAKI-1): 101.14%
- Activity (K562): 112.86%
- Activity (SNB-75 [6]): 92.05%
- Activity (IGROV-1): 126.1%
- Activity (BT-549): 111.12%
- Activity (SNB-19): 121.25%
- Activity (MOLT-4 [9]): 117.57%
- Activity (HCT-116 [10]): 94.47%

SMILES: COc1ccc(Nn2c(SCC(=O)Nc3nccs3)nc(C)c2C)cc1
- Activity (SR): 104%
- Activity (NCI/ADR-RES): 92.35%
- Activity (Hs-578T): 109.7%
- Activity (NCI-H460): 108.22%
- Activity (HT-29): 102.36%
- Activity (MDA-MB-468 [2]): 94.85%
- Activity (SK-MEL-28): 113.96%
- Activity (A549 [3]): 104.98%
- Activity (U-251): 104.49%
- Activity (SK-OV-3): 108.56%
- Activity (SW-620): 113.7%
- Activity (CCRF-CEM): 100.87%
- Activity (CAKI-1): 90.35%
- Activity (K562): 99.68%
- Activity (SNB-75 [6]): 100.22%
- Activity (IGROV-1): 102.01%
- Activity (BT-549): 105.55%
- Activity (SNB-19): 109.69%
- Activity (MOLT-4 [9]): 100.89%
- Activity (HCT-116 [10]): 106.93%
